In patent US6906205B2, “Spiro and dispiro 1,2,4-trioxolane antimalarials” (Medicines for Malaria Venture MMV, priority 2002, dated 2005):

Legend:
Format in all cases: in vivo, Plasmodium berghei
P. berghei ANKA strain [1] = test: treatment: 3x10 mg/kg p.o. divided dose vs 1x30 mg/kg po single dose in infected mice; details: for Activity (%) p.o. SSV: percent reduction of parasitemia day 4; for Cures: 1 × 30 mg/kg, survival to day 30 post-infection = cure, cured/treated mice
Method: Moro NMRI male mice (Fü Albino specific pathogen free) weighing 18±2 g were infected intravenously (i.v.) with 2×10^7 P. berghei ANKA strain-infected erythrocytes from donor mice on day 0 of the experiment. From donor mice with circa 30% parasitemia, heparinized blood was taken and diluted in physiological saline to 10^8 parasitized erythrocytes per ml. An aliquot (0.2 ml) of this suspension was injected i.v. into experimental and control groups of mice. […] Throughout the experiments, mice were kept in groups of three or five animals in Makrolon type II cages in an air-conditioned animal room at 22 to 23° C.
They were administered per os (p.o.) in a total volume of 0.01 ml per gram of mouse. The activity of the compound was determined by a variety of methods outlined in subsequent sections. Survival time was also recorded, and survival to day 30 post-infection was considered to be a cure.
The first experiment conducted consisted of administration of a divided 3×10 mg/kg p.o. dose administered on days 1, 2, and 3 post-infection vs. a single 1×30 mg/kg po dose administered on day 1 post-infection. On day 4 post-infection, blood smears of all animals were prepared and stained with Giemsa. […] Compounds were administered orally in the SSV vehicle.

P. berghei ANKA strain [2] = test: treatment: 3x3 mg/kg and 3x1 mg/kg po divided doses in infected mice; details: for Activity (%) p.o. SSV: percent reduction of parasitemia day 4
Outline: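 NMRI mice infected i.v. with 2×10^7 P. berghei ANKA-parasitized erythrocytes on day 0, then dosed orally in SSV vehicle at 3×3 or 3×1 mg/kg on days 1–3. Day-4 Giemsa smears gave percent parasitemia reduction versus untreated controls; survival to day 30 counted as cure.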

P. berghei ANKA strain [3] = test: prophylactic activity, single 100 mg/kg po dose before infection; details: reduction of parasitemia day 3 post-infection
Method: Moro NMRI male mice (Fü Albino specific pathogen free) weighing 18±2 g were infected intravenously (i.v.) with 2×10^7 P. berghei ANKA strain-infected erythrocytes from donor mice on day 0 of the experiment. From donor mice with circa 30% parasitemia, heparinized blood was taken and diluted in physiological saline to 10^8 parasitized erythrocytes per ml. An aliquot (0.2 ml) of this suspension was injected i.v. into experimental and control groups of mice. In untreated control mice, parasitemia rose regularly to 40 to 50% by day 3 post-infection and 70 to 80% by day 4 post-infection. The mice died between days 5 and 7 post-infection. Throughout the experiments, mice were kept in groups of three or five animals in Makrolon type II cages in an air-conditioned animal room at 22 to 23° C. A diet with p-aminobenzoic acid (PABA) of 45 mg (NAFAG FUTTER© food N^o 9009 PAB-45) per kg of body weight, and tap water is available ad libitum.
OZ compounds were prepared at an appropriate concentration, either as a solution or a suspension containing SSV (0.5% w/v CMC, 0.5% v/v benzyl alcohol, 0.4% v/v Tween 80, and 0.9% w/v sodium chloride in water). They were administered per os (p.o.) in a total volume of 0.01 ml per gram of mouse. The activity of the compound was determined by a variety of methods outlined in subsequent sections. Survival time was also recorded, and survival to day 30 post-infection was considered to be a cure.
Prophylactic activities of the compounds were compared after administering po single dose of 100 mg/kg to different groups of five animals at various times before infection. All groups including an untreated control group, were then infected at the same time. Parasitemia was determined for each animal on day 3 post-infection, and percent of reduction of the level of parasitemia compared to levels for animals given no drug is determined.

[4] = 1 × 30 mg/kg single dose day 1 post-infection
[5] = 3 × 10 mg/kg days 1, 2, 3 post-infection
[6] = 3 × 1 mg/kg days 1, 2, 3 post-infection
[7] = 3 × 3 mg/kg days 1, 2, 3 post-infection
[8] = single 100 mg/kg po 24 h before infection
[9] = single 100 mg/kg po 48 h before infection
[10] = single 100 mg/kg po 72 h before infection

SMILES	Survival (days) p.o. SSV (P. berghei ANKA strain [1]; [4]) [days]	Activity (%) p.o. SSV (P. berghei ANKA strain [1]; [4]) [%]	Cures (P. berghei ANKA strain [1])	Survival (days) p.o. SSV (P. berghei ANKA strain [1]; [5]) [days]	Activity (%) p.o. SSV (P. berghei ANKA strain [1]; [5]) [%]	Survival (days) p.o. SSV (P. berghei ANKA strain [2]; [6]) [days]	Activity (%) p.o. SSV (P. berghei ANKA strain [2]; [6]) [%]	Survival (days) p.o. SSV (P. berghei ANKA strain [2]; [7]) [days]	Activity (%) p.o. SSV (P. berghei ANKA strain [2]; [7]) [%]	Prophylactic Activity (%) (P. berghei ANKA strain [3]; [8])	Prophylactic Activity (%) (P. berghei ANKA strain [3]; [9])	Prophylactic Activity (%) (P. berghei ANKA strain [3]; [10])	Prophylactic Activity (%) (P. berghei ANKA strain [3]; single 100 mg/kg po at 0 h)
CS(=O)(=O)O.NCC1CCC2(CC1)OOC1(O2)C2CC3CC(C2)CC1C3 (stereo not shown) [compound 209]	>30	100	0/5	>30	100	9.4	99.51	16.4	100	100	99.9	99.92	100
CS(=O)(=O)O.NCC(=O)NCC1CCC2(CC1)OOC1(O2)C2CC3CC(C2)CC1C3 (stereo not shown) [compound 271]	14	99.97	0/5	27.8	100	8.8	87	16.2	99.99	100	99.98	99.89	100
CC(C)(N)C(=O)NCC1CCC2(CC1)OOC1(O2)C2CC3CC(C2)CC1C3 (stereo not shown) [compound 281]	–	–	–	–	–	13	92	12.4	100	99.23	45	8	100
CS(=O)(=O)O.c1cc(OCC2CCC3(CC2)OOC2(O3)C3CC4CC(C3)CC2C4)ccn1 (stereo not shown) [compound 301]	–	–	–	>30	100	8.8	58	23	100	–	–	–	–
Cc1ccc(S(=O)(=O)O)cc1.NC1CCC(NC(=O)CC2CCC3(CC2)OOC2(O3)C3CC4CC(C3)CC2C4)CC1 (stereo not shown) [compound 315]	–	–	–	>30	100	12.2	81	22	99.99	–	–	–	–
